Values of other authors as cited in patent US20220403162A1, “POLYURETHANE COMPOSITIONS SALTED WITH BISBIGUANIDE” (Lubrizol Advanced Materials, Inc., priority 2019, published 2022).

Row | solubility in water or alcohol (quoted from US 2004/0052831 A1) | SMILES | solubility in water (The Merck Index)
1 | – | N=C(NCCCCCCNC(=N)NC(=N)Nc1ccc(Cl)cc1)NC(=N)Nc1ccc(Cl)cc1.O=C(O)[C@H](O)[C@@H](O)[C@H](O)[C@H](O)CO.O=C(O)[C@H](O)[C@@H](O)[C@H](O)[C@H](O)CO [CHG, chlorhexidine digluconate] | at least 50%
2 | not soluble | [H]/N=C(\N/C(=N/[H])NCCCCCCNC(=N)NC(=N)Nc1ccc(Cl)cc1)Nc1ccc(Cl)cc1 [Chlorhexidine, 1,6-bis(4-chloro-phenylbiguanido)hexane] | –
